Experiment [1] relates to human diploid fibroblasts. The experiment in a line: DNA synthesis, [3H]thymidine incorporation. The class given is cell-based. The note with it: for increase in [3H]thymidine incorporation: 50-100 ng/ml PDGF. The protocol: FIG. 5 represents reduction of growth factor-induced thymidine incorporation in near-senescent fibroblasts. […] The amount of [^3H]thymidine incorporated into DNA over 4 hrs was measured as described. The data represents an average of 3 counts in cpm. A representative experiment of the three is presented in A. Fold increase over the untreated control was calculated and plotted in B.
FIG. 18 represents changes in LPA-induced thymidine incorporation and cell proliferation in near-senescent fibroblasts versus presenescent fibroblasts. Subconfluent presenescent (passage 8, Pa 8) and near-senescent (passage 24, Pa 24) fibroblasts were serum-starved for 2 days and treated with LPA (1-70 μg/ml) for 16 hrs. The amount of [^3H]thymidine incorporated into DNA over 4 hrs was measured as described. The data represents an average of 3 counts in cpm in each independent experiments. A representative experiment of the three is presented in A. Converted fold increase over the untreated control was calculated and plotted in B.
Quiescent cells were labeled with [^3H]thymidine (0.5 μCi/ml) for 4 hrs and the […] radioactive thymidine was removed by washing with PBS. DNA was precipitated with 10% TCA and lysed in 0.5N NaOH. The radioactivity in neutralized lysates was counted in a liquid scintillation cocktail.

In experiment [2] the test system is human diploid fibroblasts. The experiment in a line: measurement of cytosolic free [Ca2+]i by confocal microscopy (fluo-3-AM). The note with it: PDGF 50 ng/ml, LPA 1 μg/ml. The experiment is classed as cell-based. The protocol: FIG. 1 represents differential changes in growth factor-stimulated calcium release in senescent fibroblasts. Presenescent (passage 7: A and C) and senescent (passage 27: B and D) fibroblasts were grown on coverslips, serum-starved, and incubated with 4 μM fluo-3-AM in serum-free medium for 40 min. The stained cells were treated with […] of platelet-derived growth factor (A and B) or 1 μg/ml of lysophosphatidic acid (C and D) via a micro-perfusion system for the real-time measurement of signaling molecules, and laser scanning confocal microscopy. The scanned images were analyzed for changes in intracellular Ca^2+ at the single cell level and results expressed as relative fluorescence intensity (RFI).
[Ca^2+]i was measured using a laser scanning confocal microscope, as described by Junn et al. (2000). Quiescent fibroblasts grown on glass cover slips in a 6-well plate were stained with 4 μM of fluo-3-acetoxymethyl ester (fluo-3-AM) in phenol red-free medium without serum for 40 min and washed three times with the serum-free medium. Stained cells on each cover slip were mounted on a perfusion chamber (MPS-1000, Seoul Engineering, Korea), placed under the confocal laser scanning microscope (Carl Zeiss LSM 410), and scanned every 5 sec with a 488 nm excitation argon laser and a 515 nm long pass emission filter. Growth factors were added to the cells using an automatic pumping system (self-designed). All scanned images were analyzed for [Ca ^2+]i changes at the single cell level using “Time Series Program” for a real-time measurement of relative fluorescence intensity (RFI) which is installed in the Carl Zeiss LSM 410 confocal system.

The subject of experiment [3] is human diploid fibroblasts. The experiment in a line: growth factor-stimulated signaling events in human diploid fibroblasts. The experiment is classed as cell-based. The method, then: Foreskin fibroblasts were isolated as described by Boyce and Ham (1983). Cells were cultured in Dulbecco's modified Eagle's medium containing 10% fetal bovine serum and antibiotics. The primary culture contained smaller and more closely packed cells during the early stage of the culture. Cells with less than 10 passage were often considered as presenescent cells. As the cells were passaged, they became larger and they have a slower growth rate at passage 10-20. Cells from over 27 passages were completely growth-arrested and developed characteristic appearance designated previously as replicative senescence (Yeo et al., 2000a and b). In order to confirm that cells were senescent, we either examined the activity of beta-galactosidase or stained with X-gal, a membrane permeable substrate of the enzyme, which produces a blue insoluble product inside of the cells. The number of cells stained with X-gal increased with age and most of cells from passage 27-28 were stained. Cultures of over 23-28 passages have also shown the cessation of cell growth and senescence-like morphological changes, but only 70-80% of cells were stained with X-gal. These were termed “near-senescent”. Although the near-senescent cultures were not completely homogeneous, we compared the changes in these cultures to those in presenescent cultures of passage 6-10. In order to determine the growth factor-stimulated signaling events, cells were grown for 1-2 days to 60-70% sub-confluency in the culture medium, and then serum-starved to become quiescent by incubating with serum free medium (SFM) for 2 days. The quiescent cells were treated with various agonists, as described in the figure legends. To label cells, radioactive chemicals were added during the incubation with SFM.
Primary human diploid fibroblasts, isolated from newborn foreskins, were used to study the mechanism of reduced response to growth factor stimulation with aging. These cells were maintained and passaged as described previously (Yeo et al., 2000a). […] Compared to their presenescent counterparts, the senescent and near-senescent cells were larger and grew to lower density, as has been observed in other cell systems. Here the present inventors report upon the differential changes in the signaling events evoked by platelet-derived growth factor (PDGF) and lysophosphatidic acid (LPA). PDGF elicits signaling events over a concentration range of 10-100 ng/ml, whereas LPA stimulates the hydrolysis of phospholipids, Ca^2+ mobilization, and actin polymerization over a concentration range of 0.1-10 μg/ml in human diploid fibroblasts. In order to compare their cellular responses, we treated presenescent and senescent (or near-senescent) cells with PDGF and LPA at a maximally responsive dose of 50 ng/ml and 1 μg/ml, respectively.

Experiment [4] has as its system Phospholipase C (PLC). The note with it: near-senescent cells (passage 23) vs presenescent (passage 6); PDGF 50 ng/ml, LPA 1 μg/ml, 20 min, 20 mM LiCl.
Experiment [5] deals with phospholipase D (PLD). The experiment in a line: phosphatidylbutanol formation as an indication of phospholipase D activity. The experiment is classed as cell-based, human. The note with it: passage 24 near-senescent cells vs presenescent; 0.5% 1-butanol, 20 min. The protocol: Subconfluent presenescent (passage 8: Pa 8) and near-senescent (passage 24: Pa 24) cells were serum-starved and labeled with [^3H]myristic acid overnight. […] A representative experiment of three performed in duplicate is presented.
Quiescent cells were labeled overnight with [^3H]myristic acid (1 μCi/ml) and then washed with PBS. Phosphatidylbutanol formation was measured as described by Yeo et al. (1994). Cells were preincubated with 0.5% (v/v) 1-butanol for 15 min and then treated with agonists for 20 min in the presence of 0.5% 1-butanol. Total lipids were extracted and separated by thin layer chromatography. The band of phosphatidylbutanol was scraped off the plates and its radioactivity was counted in a liquid scintillation cocktail.

In experiment [6] the test system is human diploid fibroblasts. The experiment in a line: confocal microscopic measurement of actin polymerization (NBD-phallacidin). The class given is cell-based. The note with it: PDGF 50 ng/ml, LPA 1 μg/ml. The method, then: FIG. 2 represents differential changes in growth factor-induced actin polymerization in senescent fibroblasts. […] The cells were fixed, permeabilized, and stained with NBD-phallacidin, then photographed.
F-actin was stained as described by Shin et al. (1999). Quiescent cells grown on glass cover slips in multi-well culture plates were treated with agonists for 30 min, and the cells were fixed with 3.7% paraformaldehyde in PBS for 30 min on ice. Following permeabilization with 0.2% Triton X-100 in PBS for 15 min on ice, the cells were stained with […] NBD-phallacidin in PBS for 30 min at RT. The stained cells were washed three times with PBS for 15 min and the cover slip was mounted on a slide glass with Gelvatol, which was prepared by mixing 100 ml of 23% polyvinyl alcohol in PBS with 50 ml glycerol. The cells were then observed under a confocal fluorescence microscope.

For experiment [7], the system named is HDF. The experiment in a line: viable cell counting (Trypan blue) with adenylyl cyclase inhibitor and/or LPA. The class given is cell-based, human. The conditions noted are these: senescent cell culture; LPA plus adenylyl cyclase inhibitor (SQ22536 300 μM). The protocol:
O and Y denote old and young cell, respectively.
Young or old HDF (passage 8-11) were treated with LPA (30 μM), dbcAMP (cAMP analog, 1 mM, Sigma), adenylyl cyclase inhibitor, SQ22536 (300 μM, Calbiochem) and their combinations for 30-60 min at 37° C. The cells treated were stained with Trypan blue (GiBco/BRL) for 10 min at 37° C. and only cells without blue color were then counted under hemacytometer.

The test system of experiment [8] is HDF. The experiment in a line: flow cytometry (FACS, propidium iodide) of cell cycle progression. The experiment is classed as cell-based, human. The conditions noted are these: senescent cell. The method, then:
FIG. 21 represents the results of FACS analysis evaluating the effect of LPA on cell cycle progression in senescent cells in connection with the affection of cAMP control. Con denotes control group and ACI is adenylyl cyclase inhibitor.
In addition, the treated cells were analyzed using flow cytometry. The treated cells were harvested and treated with […] of 0.1% trypsin for 30 sec, after which centrifugation was performed at 4° C. for 10 min at 1000 rpm. Then, the cell concentration was adjusted to 1-3×10^6 cells/ml in sample buffer. The sample buffer was prepared in such a manner that 1 g glucose in 1 L PBS without Ca^2+ and Mg^2+ was filtered through a 0.22 μm filter. The solutions containing cells was centrifuged at 4° C. for 10 min at 1000 rpm and ice-cold 70% ethanol was added dropwise to pellet. The sample tube was capped, allowed to fix in the ethanol overnight at 4° C., vortexed briefly, and then centrifuged for 5 min at 3000 rpm. Thereafter, ethanol was discarded and PI (propidium iodide) staining solution (0.5 ml 20× propidium iodide stock solution (50 μg/ml final), 1000 kunits RNase A (100 U/ml final) and 10 ml sample buffer) was added into the sample tube. Finally, the sample was analyzed within 24 hr in a […] (FACS Calibur, Beckton-Dikinson).

For experiment [9], the system named is cellular cAMP. The experiment in a line: measurement of cyclic AMP accumulation (cAMP binding assay). The class given is cell-based, human. The conditions noted are these: near-senescent HDF (passage 26); 30 μg/ml LPA; 10 μM inhibitor. The protocol:
FIG. 9 represents LPA-induced alteration of cellular cAMP content in presenescent and near-senescent fibroblasts. Subconfluent presenescent (passage 8, Pa 8) and near-senescent (passage 24, Pa 24) fibroblasts were serum-starved for 2 days and treated with LPA: A, 1-70 μg/ml LPA for 30 min; B, 30 μg/ml LPA for the indicated times. The level of cAMP in the acid extracts was measured by cAMP binding assay. The data represents an average of triplicate experiments.
Subconfluent near-senescent (passage 26, Pa 26) fibroblasts were serum-starved for 2 days and treated with 30 μg/ml LPA for the indicated times in the absence or presence of 10 μM PKC inhibitor bisindolylmaleiamide (bIM). The level of cAMP in the acid extracts was measured by cAMP binding assay. The data represents an average of triplicate experiments.
Cells grown on a 12 well-plate were serum-starved by incubating with SFM for 2 days. After the cells were equilibrated in the fresh SFM medium for 1 hour, they were treated with LPA as described in the figure. The reaction was terminated by removing the medium and by adding 2.5 M perchloric acid. The acid extract was stored at −20° C. until use. The acid extract was neutralized with 4.2 M KOH and the cAMP content was determined by competitive binding with [^3H]cAMP to the cAMP binding protein, RIα of cAMP-dependent protein kinase, as described by Jang and Juhnn (2001). After the extraction, cells were lyzed with 0.1 N NaOH and analyzed for protein content using the Bradford protein assay reagent. The cAMP content was normalized to the amount of acid-insoluble protein.

Setting [10] is: near-senescent cells (passage 24).

For PDGF, in [1] (setting [10]), the “agonist-induced DNA synthesis ([3H]thymidine incorporation) in near-senescent cells vs presenescent” value was “greatly reduced” and the “increase in [3H]thymidine incorporation” value was determined as 1.3 fold. In addition, the “increase in [3H]thymidine incorporation” value in [1] (presenescent cells (passage 8)) was 7-8 fold. Moreover, in experiment [1] (presenescent fibroblasts), the “concentration range of very strong agonism for [3H]thymidine incorporation” value lay within 10 to 100 ng/mL. For the same molecule, the “cytosolic Ca2+ levels” value in [2] (presenescent fibroblasts (passage 7)) is “rapid increase”. The “Ca2+ response in senescent cells relative to presenescent” value in experiment [2] (senescent cells (passage 27)) is on record as “greatly attenuated”. Moreover, the “concentration range over which signaling events are elicited” value in experiment [3] (human diploid fibroblasts) was 10 to 100 ng/mL. In addition, in experiment [3] (presenescent and senescent (or near-senescent) cells), the maximally responsive dose worked out at 50 ng/mL. Besides, the “agonist-stimulated inositol phosphates (IPs) production” value in experiment [4] is reported as “dramatically reduced”. For the same molecule, the “reduction of PLD activity” value in experiment [5] worked out at 80%. Also, the “actin polymerization (stress fibers)” value in [6] (presenescent fibroblasts (passage 10)) was “enhanced the formation of stress fibers”. Further, in experiment [6] (senescent cells (passage 27)), the “agonist-induced actin polymerization in senescent cells” value is “almost completely blocked”.

As for `Nc1ncnc2c1ncn2C1CCCO1` (stereo not shown) [adenylyl cyclase inhibitor], in experiment [7], the viable cell number entry is given as “dramatically increased”. Further, the “number of cells in S phase” value is “dramatically increased” in experiment [8] (adenylyl cyclase inhibitor alone) and “more enhanced” in [8] (co-treatment of adenylyl cyclase inhibitor with LPA).

“bisindolylmaleiamide [bis-indolylmaleiamide]”: the “cAMP content in LPA-stimulated cells in presence of PKC inhibitor” value in [9] is recorded as “inhibition of cAMP accumulation”.

For the origin of these results see patent US20060099568A1, “Signals and molecular species involved in senescence” (priority 2002, published 2006).
